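Cells were grown in 96-well plates and exposed to each compound for 48 hours at five concentrations; endpoints were interpolated linearly between bracketing concentrations, or set to the highest concentration if not reached. Abbreviation: GI50, concentration required for 50% inhibition of growth.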 The source made the active and inactive calls. Rule as the data show it: active = GI50 up to about 1.1 µM and inactive = higher. Where a SMILES comes first, the peptide text is derived from it. The star is where a group is joined. Boc = CC(C)(C)OC(=O)*

Test systems include CAKI-1; A549; SK-MEL-5; NCI-H460; DU-145; SF-268; LOX IMVI; SK-OV-3; TK-10; OVCAR-5; NCI-H23; SNB-19; COLO 205; UO-31; HCT-15; SN12C; KM12; HCT-116; OVCAR-4; NCI-H226.
Assay in all cases: inhibition of tumour cell growth, NCI panel, 48 h

For `Nc1ccccc1/N=C/c1cc2cc([N+](=O)[O-])ccc2s1`, the GI50 in the test with CAKI-1 is 15.5 µM (inactive); in the test with A549, 8.47 µM (inactive); in the test on SK-MEL-5, 21.4 µM (inactive); in the test on NCI-H460 it was 5.58 µM (inactive); in the test with DU-145, 12.6 µM (inactive); in the test with SF-268, 14.6 µM (inactive). The GI50 is 13.9 µM (inactive) in the test on LOX IMVI; 13.9 µM (inactive) with SK-OV-3; 15.2 µM (inactive) in the test on TK-10; 32.7 µM (inactive) in the test on OVCAR-5; 33 µM (inactive) in the test with NCI-H23; 14.1 µM (inactive) with SNB-19. The GI50 is 17.8 µM (inactive) with COLO 205; 15.7 µM (inactive) in the test with UO-31; 43.3 µM in the test with HCT-15; 23.8 µM (inactive) with SN12C; 10 µM (inactive) in the test with KM12; 24.9 µM (inactive) in the test on HCT-116.

Regarding `NC1CC(=O)c2cc(Br)sc21` (configuration not stated), the GI50 in the test on CAKI-1, in the test with A549, in the test on SK-MEL-5, in the test on NCI-H460, in the test on DU-145 and with SF-268 was > 100 µM (inactive) in each case. Further, the GI50 with SK-OV-3, in the test with TK-10, with OVCAR-5, with SNB-19, in the test with COLO 205 and in the test with UO-31 was > 100 µM (inactive) each time. The GI50 in the test with HCT-15 was > 100 µM; in the test with SN12C, > 100 µM (inactive); with KM12, > 100 µM (inactive); in the test with HCT-116, > 100 µM (inactive).

`Cc1ccc2[nH]c(Sc3c([N+](=O)[O-])ncn3C)nc2c1`: the GI50 is 11.9 µM (inactive) in the test with CAKI-1; 30.5 µM (inactive) in the test with A549; 17.1 µM (inactive) with SK-MEL-5; 35.2 µM (inactive) in the test on NCI-H460; 31.5 µM (inactive) with SF-268; 18.1 µM (inactive) with OVCAR-4. Besides, the GI50 with NCI-H226 is 12.8 µM (inactive); in the test on LOX IMVI it was 34.3 µM (inactive); with SK-OV-3 it was 30 µM (inactive); with TK-10 it was 44.9 µM (inactive); in the test on OVCAR-5, 46.8 µM (inactive); in the test on NCI-H23, 18.6 µM (inactive). The GI50 is > 100 µM (inactive) in the test on SNB-19; 13.3 µM (inactive) in the test on COLO 205; 27.5 µM (inactive) in the test on UO-31; 13.8 µM with HCT-15; 18 µM (inactive) in the test on SN12C; 67 µM (inactive) in the test on KM12. Moreover, the GI50 in the test on HCT-116 was 21.1 µM (inactive).

As for `O=C1CC(C(OCc2ccccc2)C(OCc2ccccc2)C(OCc2ccccc2)C(COCc2ccccc2)OCc2ccccc2)CC(=O)N1` (configuration not stated), the GI50 with A549, in the test on SK-MEL-5, in the test on NCI-H460, with DU-145, in the test on SF-268 and in the test with OVCAR-4 was > 100 µM (inactive) throughout. The GI50 in the test with LOX IMVI is > 100 µM (inactive); with TK-10, > 100 µM (inactive); with OVCAR-5, > 100 µM (inactive); in the test with NCI-H23, > 100 µM (inactive); with SNB-19, > 100 µM (inactive); with UO-31 it was 60.1 µM (inactive). Moreover, the GI50 in the test on HCT-15 is > 100 µM; with SN12C it was > 100 µM (inactive).

As for `CC(=O)OCC1OC(n2c(C)c(/N=N/c3ccccc3)c(C)c(C#N)c2=S)C(OC(C)=O)C(OC(C)=O)C1OC(C)=O` (configuration not stated), the GI50 in the test with CAKI-1 was 26.6 µM (inactive); with A549, 57.3 µM (inactive); in the test on SK-MEL-5, 34 µM (inactive); in the test on NCI-H460 it was 39.8 µM (inactive); in the test on DU-145, 83.4 µM (inactive); in the test with SF-268 it was 57.1 µM (inactive). The GI50 with OVCAR-4 is 48.9 µM (inactive); in the test with LOX IMVI it was 39.6 µM (inactive); in the test on SK-OV-3, 22.6 µM (inactive); with TK-10, 29 µM (inactive); in the test with OVCAR-5, 86.9 µM (inactive); with NCI-H23, > 100 µM (inactive). For the same molecule, the GI50 in the test with SNB-19 is 24.2 µM (inactive); in the test on COLO 205, 86.3 µM (inactive); in the test on UO-31, > 100 µM (inactive); in the test with SN12C it was 81.5 µM (inactive); with KM12, > 100 µM (inactive); in the test on HCT-116 it was 16.9 µM (inactive).

For the molecule `COc1cccc(C=O)c1C(=O)c1cc(O)ccc1O`, the GI50 is 23.7 µM (inactive) in the test on CAKI-1; > 100 µM (inactive) in the test on A549; 91.8 µM (inactive) in the test with SK-MEL-5; > 100 µM (inactive) in the test on NCI-H460; > 40 µM (inactive) in the test with SF-268; 18.3 µM (inactive) in the test with OVCAR-4. For the same molecule, the GI50 in the test on NCI-H226 is > 100 µM (inactive); in the test on LOX IMVI, 37.8 µM (inactive); in the test with SK-OV-3, > 100 µM (inactive); in the test on TK-10 it was 29.6 µM (inactive); with OVCAR-5, > 100 µM (inactive); with NCI-H23, > 81.7 µM (inactive). The GI50 with SNB-19 was > 100 µM (inactive); with COLO 205, 18.1 µM (inactive); in the test with UO-31 it was 18.5 µM (inactive); with HCT-15, 19.5 µM; in the test with SN12C, > 84.1 µM (inactive); in the test with KM12, > 100 µM (inactive). Moreover, in the test on HCT-116, the GI50 is 20.1 µM (inactive).

For the molecule `CNC(=O)CNC(=O)C(NC(=O)CNC(=O)C1CCCN1C(=O)C(C)NC(=O)C(NC(C)=O)C(C)C)C(C)C` (configuration not stated) (Ac-VAPGVG-NHMe; configuration not given here), the GI50 in the test with CAKI-1, in the test on NCI-H460, in the test with DU-145, in the test on SF-268, in the test with OVCAR-4 and in the test on LOX IMVI was > 100 µM (inactive) each time. The GI50 in the test with SK-OV-3, in the test with TK-10, in the test on OVCAR-5, in the test with NCI-H23, in the test on SNB-19 and in the test with COLO 205 was > 100 µM (inactive) throughout. The GI50 with UO-31 was > 100 µM (inactive); with HCT-15, > 100 µM; with SN12C it was > 100 µM (inactive); with HCT-116, > 100 µM (inactive).

As for `CC(C)(C)OC(=O)NC12C3C4C1C1C2C3C41NC(=O)OC(C)(C)C` (configuration not stated), the GI50 in the test on CAKI-1 was > 100 µM (inactive); in the test with A549 it was 71.9 µM (inactive); with SK-MEL-5 it was 26.5 µM (inactive); with NCI-H460 it was 35.6 µM (inactive); in the test with DU-145, 68.4 µM (inactive); in the test on SF-268, 35.8 µM (inactive). For the same molecule, the GI50 is 35.4 µM (inactive) in the test with OVCAR-4; 36.1 µM (inactive) with LOX IMVI; > 100 µM (inactive) in the test on TK-10; > 100 µM (inactive) in the test with OVCAR-5; 57.4 µM (inactive) in the test with NCI-H23; > 100 µM (inactive) with SNB-19. Moreover, the GI50 was > 100 µM (inactive) in the test on COLO 205; 39.4 µM (inactive) with UO-31; 73.3 µM in the test on HCT-15; 88.5 µM (inactive) in the test with SN12C; 15.8 µM (inactive) in the test on KM12; 47.3 µM (inactive) in the test on HCT-116.

Take `CCCCCCCCCCCCCC(=O)CC(=O)c1c(O)cccc1O`: the GI50 in the test with CAKI-1 is 34 µM (inactive); with A549, 51.1 µM (inactive); in the test with SK-MEL-5, > 100 µM (inactive); in the test on NCI-H460, 36.1 µM (inactive); in the test with SF-268 it was 61.8 µM (inactive); in the test on OVCAR-4 it was 33.4 µM (inactive). Also, the GI50 in the test with NCI-H226 was 28.4 µM (inactive); with LOX IMVI, 19.6 µM (inactive); in the test on SK-OV-3 it was 38.6 µM (inactive); with TK-10, 51.6 µM (inactive); in the test on OVCAR-5, 46.6 µM (inactive); in the test with NCI-H23, 23 µM (inactive). In addition, the GI50 in the test on SNB-19 was 36.4 µM (inactive); in the test on COLO 205, 22.5 µM (inactive); with UO-31, 32.7 µM (inactive); in the test with HCT-15, 25.2 µM; in the test on SN12C it was 33.6 µM (inactive); with KM12, 41.1 µM (inactive). For the same molecule, the GI50 in the test with HCT-116 is 43.6 µM (inactive).

For the molecule `CNC(=O)CNC(=O)C(NC(=O)CNC(=O)C1CCCN1C(=O)C(C)NC(=O)C(NC(=O)OC(C)(C)C)C(C)C)C(C)C` (configuration not stated) (Boc-VAPGVG-NHMe; configuration not given here), the GI50 in the test with CAKI-1, with NCI-H460, in the test with DU-145, with SF-268, in the test with OVCAR-4 and in the test with LOX IMVI was > 100 µM (inactive) each time. For the same molecule, the GI50 in the test with SK-OV-3, with TK-10, in the test on OVCAR-5, with NCI-H23, in the test with SNB-19 and in the test with COLO 205 was > 100 µM (inactive) in each case. Also, the GI50 in the test with UO-31 was > 100 µM (inactive); in the test on HCT-15, > 100 µM; in the test with SN12C, > 100 µM (inactive); in the test with HCT-116 it was > 100 µM (inactive).

On to `COC(=O)C1CC2C=CC=CC(=O)C2(C)C1` (configuration not stated), for which the GI50 in the test with CAKI-1 is > 100 µM (inactive); in the test on A549, > 100 µM (inactive); in the test with SK-MEL-5, 51.1 µM (inactive); with NCI-H460, 41.8 µM (inactive); with SF-268, 37.3 µM (inactive); with OVCAR-4, 83.2 µM (inactive). The GI50 with NCI-H226 is 56.4 µM (inactive); in the test on LOX IMVI, 53.3 µM (inactive); in the test with SK-OV-3, > 100 µM (inactive); with TK-10 it was > 100 µM (inactive); with OVCAR-5 it was > 100 µM (inactive); with NCI-H23, 44.3 µM (inactive). The GI50 in the test with SNB-19 was 76.7 µM (inactive); in the test on COLO 205, 76.9 µM (inactive); with UO-31, > 100 µM (inactive); with HCT-15, 31 µM; with SN12C it was 81.1 µM (inactive); in the test with KM12, 45.7 µM (inactive). Besides, the GI50 in the test with HCT-116 was 28 µM (inactive).

The values are drawn from ChEMBL document CHEMBL1201862, “PubChem BioAssay data set” (2004).
